Measured values reported in ChEMBL document CHEMBL1130773, “Identification of a non peptidic RANTES antagonist” (Bioorg Med Chem Lett, 1998).
Active and inactive are the calls of the source. The calls are words filed in the database; no cut-off is given here.

test system: THP-1; assay: Compound was tested in vitro for inhibition of [125I]RANTES binding to THP-1 cell membranes rich in C-C chemokine receptor type 1; conditions: dose or concentration not given here

Compound | inhibition [%]
CN(C)S(=O)(=O)c1ccc2c(c1)N(CCN1CCC3(CC1)C(=O)NCN3c1ccccc1)c1ccccc1S2 | < 20
CN(C)S(=O)(=O)c1ccc2c(c1)N(CCCN1CCCCC1)c1ccccc1S2 | 38

molecular target: C-C chemokine receptor type 2 (Homo sapiens) (UniProt P41597); assay: Tested for inhibition of [125I]-MCP-1 receptor binding to THP-1 cell membranes at concentrations up to 30 uM; NI means no inhibition; conditions: not given
Sequence (P41597 whole entry, looked up): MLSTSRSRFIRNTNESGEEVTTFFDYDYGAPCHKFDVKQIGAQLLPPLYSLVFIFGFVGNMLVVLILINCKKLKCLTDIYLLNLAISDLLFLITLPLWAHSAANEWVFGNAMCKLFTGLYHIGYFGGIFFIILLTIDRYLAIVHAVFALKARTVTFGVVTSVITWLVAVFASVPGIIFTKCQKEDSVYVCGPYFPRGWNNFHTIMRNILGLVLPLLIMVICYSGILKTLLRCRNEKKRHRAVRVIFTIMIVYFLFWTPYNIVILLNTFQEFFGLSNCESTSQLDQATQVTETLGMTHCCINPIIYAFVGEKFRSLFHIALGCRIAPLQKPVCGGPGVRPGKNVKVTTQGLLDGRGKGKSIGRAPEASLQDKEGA

Compound | inhibition
CN(C)S(=O)(=O)c1ccc2c(c1)N(CCCN1CCC3(CC1)C(=O)NCN3c1ccccc1)c1ccccc1S2 | inactive

test system: not listed separately; assay: Inhibition of [125I]RANTES binding to THP-1 cell membranes rich in C-C chemokine receptor types 1; design: species or system Homo sapiens; conditions: not given

Compound | IC50 [µM]
CN(CCCc1ccccc1)CCCN1c2ccccc2Sc2ccc(S(=O)(=O)N(C)C)cc21 | 4
CN(C)S(=O)(=O)c1ccc2c(c1)N(CCCCN1CCC3(CC1)C(=O)NCN3c1ccccc1)c1ccccc1S2 | 10
N#Cc1ccc2c(c1)N(CCCN1CCC3(CC1)C(=O)NCN3c1ccccc1)c1ccccc1S2 | 6
CN(C)S(=O)(=O)c1ccc2c(c1)N(CCCN1CCC(Cc3ccccc3)CC1)c1ccccc1S2 | 7
O=C1NCN(c2ccccc2)C12CCN(CCCN1c3ccccc3Sc3ccc(Cl)cc31)CC2 | 7
CN(C)S(=O)(=O)c1ccc2c(c1)N(CCCN1CCC3(CC1)C(=O)NCN3c1ccccc1)c1ccccc1S2 | 3
CC(=O)c1ccc2c(c1)N(CCCN1CCC3(CC1)C(=O)NCN3c1ccccc1)c1ccccc1S2 | 3
CN(C)S(=O)(=O)c1ccc2c(c1)N(CCCN1CCC(C3CCCCC3)CC1)c1ccccc1S2 | 2
CN(C)S(=O)(=O)c1ccc2c(c1)N(CCCN1CCC(c3ccccc3)CC1)c1ccccc1S2 | 4.5
O=C1NCN(c2ccccc2)C12CCN(CCCN1c3ccccc3Sc3ccccc31)CC2 | 12
CN(C)C(=O)c1ccc2c(c1)N(CCCN1CCC3(CC1)C(=O)NCN3c1ccccc1)c1ccccc1S2 | 5
COC(=O)c1ccc2c(c1)N(CCCN1CCC3(CC1)C(=O)NCN3c1ccccc1)c1ccccc1S2 | 4
